This note sets out measurements from patent US9795139B2, “Molecules having pesticidal utility, and intermediates, compositions, and processes, related thereto” (priority 2015, dated 2017).

What all share (assay type): in vivo
In data set [1] the test system is Beet Armyworm (Spodoptera exigua, LAPHEG). The experiment in a line: Bioassay on Beet Armyworm (BAW), 128-well diet tray assay. As to conditions: 168 h, 50 μg/cm^2 on artificial diet, second instar larvae, 25° C., five to seven days, average of eight wells, read-out: BAW % Control (or Mortality) rating. The method, then: (§1) Certain molecules disclosed in this document were tested against BAW and CL using procedures described in the following examples. In the reporting of the results, the “BAW & CL Rating Table” was used (See Table Section).
Bioassays on BAW were conducted using a 128-well diet tray assay. One to five second instar BAW larvae were placed in each well (3 mL) of the diet tray that had been previously filled with approximately 1.5 mL of artificial diet to which 50 μg/cm^2 of the test molecule (dissolved in 50 μL of 90:10 acetone-water mixture) had been applied (to each of eight wells) and then allowed to dry. Trays were covered with a clear self-adhesive cover, vented to allow gas exchange, and held at 25° C., 14:10 light-dark for five to seven days. Percent mortality was recorded for the larvae in each well; activity in the eight wells was then averaged. The results are indicated in the table entitled “Table ABC: Biological Results” (See Table Section).

Data set [2] has as its system Cabbage Looper (Trichoplusia ni, TRIPNI). The experiment in a line: Bioassay on Cabbage Looper (CL), 128-well diet tray assay. As to conditions: 168 h, 50 μg/cm^2 on artificial diet, second instar larvae, 25° C., five to seven days, average of eight wells, read-out: CL % Control (or Mortality) rating. The method, then: as §1
Bioassays on CL were conducted using a 128-well diet tray assay. one to five second instar CL larvae were placed in each well (3 mL) of the diet tray that had been previously filled with 1 mL of artificial diet to which 50 μg/cm^2 of the test molecule (dissolved in 50 μL of 90:10 acetone-water mixture) had been applied (to each of eight wells) and then allowed to dry. Trays were covered with a clear self-adhesive cover, vented to allow gas exchange, and held at 25° C., 14:10 light-dark for five to seven days. Percent mortality was recorded for the larvae in each well; activity in the eight wells was then averaged. The results are indicated in the table entitled “Table ABC: Biological Results” (See Table Section).

Data set [3] has as its system Yellow Fever Mosquito (Aedes aegypti, AEDSAE). The following applies: about 1 day-old larvae, 96-well plate from 4000 ppm DMSO master, 3 days at room temperature. The method, then: Certain molecules disclosed in this document were tested against YFM using procedures described in the following paragraph. In the reporting of the results, the “GPA & YFM Rating Table” was used (See Table Section).
Master plates containing 400 μg of a molecule dissolved in 100 μL of dimethyl sulfoxide (DMSO) (equivalent to a 4000 ppm solution) are used. A master plate of assembled molecules contains 15 μL per well. To this plate, 135 μL of a 90:10 water/acetone mixture is added to each well. A robot is programmed to dispense 15 μL aspirations from the master plate into an empty 96-well shallow plate (“daughter” plate). There are 6 reps (“daughter” plates) created per master. The created “daughter” plates are then immediately infested with YFM larvae.
The day before plates are to be treated, mosquito eggs are placed in Millipore water containing liver powder to begin hatching (4 g. into 400 mL). After the “daughter” plates are created using the robot, they are infested with 220 μL of the liver powder/larval mosquito mixture (about 1 day-old larvae). After plates are infested with mosquito larvae, a non-evaporative lid is used to cover the plate to reduce drying. Plates are held at room temperature for 3 days prior to grading. After 3 days, each well is observed and scored based on mortality. The results are indicated in the table entitled “Table ABC: Biological Results” (See Table Section).

SMILES strings stand for the structures.

Regarding `Cc1cc([C@H]2[C@H](C(=O)Nc3ccc(Cl)c(C(=O)NC4(C#N)CC4)c3)C2(Cl)Cl)cc(Cl)c1Cl` (relative stereo) [Molecule F51, trans-2-Chloro-N-(1-cyanocyclopropyl)-5-(2,2-dichloro-3-(3,4-dichloro-5-methylphenyl)cyclopropanecarboxamido)benzamide], the mortality at 50 µg/cm2 in data set [1] and in data set [2] was 50 to 100% in each case. Moreover, the “YFM % Control (or Mortality) rating” value in data set [3] is “D (No activity noticed in this bioassay)”.

Regarding `O=C(NC1COC1)c1cc(NC(=O)[C@H]2[C@H](c3cc(Cl)cc(Cl)c3)C2(Cl)Cl)ccc1Cl` (relative stereo) [Molecule F53, trans-2-Chloro-5-(2,2-dichloro-3-(3,5-dichlorophenyl)cyclopropanecarboxamido)-N-(oxetan-3-yl)benzamide], the mortality at 50 µg/cm2 in data set [1] and in data set [2] was 50 to 100% throughout. Also, in data set [3], the “YFM % Control (or Mortality) rating” value is “A (80-100)”.

With `CC(C)(C)OC(=O)N1CC(NC(=O)c2cc(NC(=O)[C@H]3[C@H](c4cc(Cl)cc(Cl)c4)C3(Cl)Cl)ccc2Cl)C1` (relative stereo) [Molecule F54, trans-tert-butyl 3-(2-chloro-5-(2,2-dichloro-3-(3,5-dichlorophenyl)cyclopropanecarboxamido)-benzamido)azetidine-1-carboxylate], the mortality at 50 µg/cm2 in data set [1] and in data set [2] was 50 to 100% in each case. For the same compound, the “YFM % Control (or Mortality) rating” value in data set [3] was “D (No activity noticed in this bioassay)”.

Turning to `C[C@]1(c2cc(Cl)cc(Cl)c2)[C@H](C(=O)Nc2ccc(Cl)c(C(=O)NC3CC(F)(F)C3)c2)C1(Cl)Cl` (relative stereo) [Molecule F61, trans-2-chloro-5-(2,2-dichloro-3-(3,5-dichloro-phenyl)-3-methylcyclopropane-1-carboxamido)-N-(3,3-difluorocyclobutyl)-benzamide], the mortality at 50 µg/cm2 in data set [1] and in data set [2] was 50 to 100% in each case. The “YFM % Control (or Mortality) rating” value in data set [3] is listed as “A (80-100)”.

In the case of `C[C@@]1(c2cc(Cl)cc(Cl)c2)[C@H](C(=O)Nc2ccc(Cl)c(C(=O)NC3CC(F)(F)C3)c2)C1(Cl)Cl` (relative stereo) [Molecule F62, cis-2-Chloro-5-(2,2-dichloro-3-(3,5-dichlorophenyl)-3-methylcyclopropane-1-carboxamido)-N-(3,3-difluorocyclobutyl)benzamide], the mortality at 50 µg/cm2 in data set [1] and in data set [2] was 0 to 50% in each case. Further, the “YFM % Control (or Mortality) rating” value in data set [3] is given as “D (No activity noticed in this bioassay)”.

On to `O=C1CCC(NC(=O)c2cc(NC(=O)[C@H]3[C@H](c4cc(Cl)cc(Cl)c4)C3(Cl)Cl)ccc2Cl)CC1` (relative stereo) [Molecule F65, trans-2-Chloro-5-(2,2-dichloro-3-(3,5-dichlorophenyl)cyclopropane-1-carboxamido)-N-(4-oxocyclohexyl)benzamide], for which the mortality at 50 µg/cm2 in data set [1] lay within 0 to 50%; in data set [2], 50 to 100%. For the same compound, in data set [3], the “YFM % Control (or Mortality) rating” value was “A (80-100)”.

Turning to `N#CC1(NC(=O)c2cc(NC(=O)[C@H]3[C@H](c4ccc(Br)c(Cl)c4)C3(Cl)Cl)ccc2Cl)CC1` (relative stereo) [Molecule F66, trans-5-(3-(4-bromo-3-chlorophenyl)-2,2-dichlorocyclopropane-1-carboxamido)-2-chloro-N-(1-cyanocyclopropyl)benzamide], the mortality at 50 µg/cm2 in data set [1] and in data set [2] was 50 to 100% each time. In data set [3], the “YFM % Control (or Mortality) rating” value was “A (80-100)”.

On to `C=Cc1ccc([C@H]2[C@H](C(=O)Nc3ccc(Cl)c(C(=O)NC4(C#N)CC4)c3)C2(Cl)Cl)cc1Cl` (relative stereo) [Molecule F67, trans-2-chloro-N-(1-cyanocyclopropyl)-5-(2,2-dichloro-3-(3-chloro-4-vinylphenyl)cyclopropane-1-carboxamido)benzamide], for which the mortality at 50 µg/cm2 in data set [1] and in data set [2] was 50 to 100% in each case. For the same compound, in data set [3], the “YFM % Control (or Mortality) rating” value is given as “A (80-100)”.

Regarding `O=C1CC(NC(=O)c2cc(NC(=O)[C@H]3[C@H](c4cc(Cl)cc(Cl)c4)C3(Cl)Cl)ccc2Cl)C1` (relative stereo) [Molecule F68, trans-2-chloro-5-(2,2-dichloro-3-(3,5-dichloro-phenyl)cyclopropane-1-carboxamido)-N-(3-oxocyclobutyl)benzamide], the mortality at 50 µg/cm2 in data set [1] and in data set [2] was 50 to 100% throughout. The “YFM % Control (or Mortality) rating” value in data set [3] is reported as “A (80-100)”.

Turning to `O=C(NC1CC(F)(F)C1)c1cc(NC(=O)[C@H]2[C@H](c3ccc([N+](=O)[O-])cc3)C2(Cl)Cl)ccc1Cl` (relative stereo) [Molecule F69, trans-2-chloro-5-(2,2-dichloro-3-(4-nitrophenyl)cyclopropane-1-carboxamido)-N-(3,3-difluorocyclobutyl)benzamide], the mortality at 50 µg/cm2 in data set [1] and in data set [2] was 50 to 100% each time. Also, the “YFM % Control (or Mortality) rating” value in data set [3] is “A (80-100)”.

For `Nc1ccc([C@H]2[C@H](C(=O)Nc3ccc(Cl)c(C(=O)NC4CC(F)(F)C4)c3)C2(Cl)Cl)cc1` (relative stereo) [Molecule F70, trans-5-(3-(4-aminophenyl)-2,2-dichlorocyclopropane-1-carboxamido)-2-chloro-N-(3,3-difluorocyclobutyl)benzamide], the mortality at 50 µg/cm2 in data set [1] was in the range of 0 to 50%; in data set [2] it was 50 to 100%. Further, the “YFM % Control (or Mortality) rating” value in data set [3] is reported as “D (No activity noticed in this bioassay)”.

For the compound `O=C1CCC(NC(=O)c2cc(NC(=O)[C@H]3[C@H](c4ccc(F)c(Cl)c4)C3(Cl)Cl)ccc2Cl)CC1` (relative stereo) [Molecule F81, trans-2-Chloro-5-(2,2-dichloro-3-(3-chloro-4-fluorophenyl)cyclopropane-1-carboxamido)-N-(4-oxocyclohexyl)benzamide], the mortality at 50 µg/cm2 in data set [1] and in data set [2] was 50 to 100% throughout. For the same compound, in data set [3], the “YFM % Control (or Mortality) rating” value is given as “A (80-100)”.

Turning to `N#CC1(NC(=O)c2cc(NC(=O)[C@H]3[C@H](c4cc(F)c(Br)c(F)c4)C3(Cl)Cl)ccc2Cl)CC1` (relative stereo) [Molecule F82, trans-5-(3-(4-Bromo-3,5-difluorophenyl)-2,2-dichlorocyclopropane-1-carboxamido)-2-chloro-N-(1-cyanocyclopropyl)benzamide], the mortality at 50 µg/cm2 in data set [1] and in data set [2] was 50 to 100% in each case. Moreover, in data set [3], the “YFM % Control (or Mortality) rating” value is “A (80-100)”.

For `COc1cc([C@H]2[C@H](C(=O)Nc3ccc(Cl)c(C(=O)NC4(C#N)CC4)c3)C2(Cl)Cl)cc(F)c1Br` (relative stereo) [Molecule F83, trans-5-(3-(4-Bromo-3-fluoro-5-methoxyphenyl)-2,2-dichlorocyclopropane-1-carboxamido)-2-chloro-N-(1-cyanocyclopropyl)benzamide], the mortality at 50 µg/cm2 in data set [1] and in data set [2] was 50 to 100% in each case. Moreover, the “YFM % Control (or Mortality) rating” value in data set [3] is recorded as “A (80-100)”.

Regarding `COc1c(F)cc([C@H]2[C@H](C(=O)Nc3ccc(Cl)c(C(=O)NC4(C#N)CC4)c3)C2(Cl)Cl)cc1Br` (relative stereo) [Molecule F84, trans-5-(3-(3-Bromo-5-fluoro-4-methoxyphenyl)-2,2-dichlorocyclopropane-1-carboxamido)-2-chloro-N-(1-cyanocyclopropyl)benzamide], the mortality at 50 µg/cm2 in data set [1] and in data set [2] was 50 to 100% throughout. Further, the “YFM % Control (or Mortality) rating” value in data set [3] is “A (80-100)”.
